Measurements: patent publication EP4562004B1, “NOVEL 7-SUBSTITUTED INDOLE SULFONAMIDE DERIVATIVES” (F. Hoffmann-La Roche AG, priority 2022, dated 2024)

Each compound was assayed against human GPR17 short isoform (Homo sapiens, UniProt Q13304) (assay: GPR17 cAMP assay (antagonist mode, TR-FRET cAMP detection)). Settings: CHO-K1 cells stably expressing human GPR17 short isoform; with EC80 concentration of agonist MDL29,951, IBMX 0.5mM, forskolin 15µM; normalized to reference antagonist; read-out: hGPR17 cAMP IC50.
human GPR17 short isoform, sequence (Q13304 29-367): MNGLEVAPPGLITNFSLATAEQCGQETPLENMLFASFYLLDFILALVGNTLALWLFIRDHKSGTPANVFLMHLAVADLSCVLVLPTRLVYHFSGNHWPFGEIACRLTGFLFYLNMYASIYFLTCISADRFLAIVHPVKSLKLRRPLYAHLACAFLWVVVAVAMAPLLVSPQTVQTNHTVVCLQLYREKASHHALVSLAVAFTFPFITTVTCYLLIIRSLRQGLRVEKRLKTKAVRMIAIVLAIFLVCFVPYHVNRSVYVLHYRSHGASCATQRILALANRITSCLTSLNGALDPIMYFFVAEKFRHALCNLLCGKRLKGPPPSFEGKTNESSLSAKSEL
Format: cell-based
Protocol: CHO-K1 cells stably expressing vector containing untagged human GPR17 short isoform (Roche) were cultured at 37°C / 5% CO2 in DMEM (Dulbecco's Modified Eagle Medium):F-12 (1:1) supplemented with 10% foetal bovine serum and 400 µg/ml Geneticin.
Changes in intracellular cyclic adenosine monophosphate (cAMP) levels were quantified using the Nano-TRF Detection Assay kit (Roche Diagnostics, Cat. No. 05214386001). This assay allows for direct cAMP quantification in a homogeneous solution. cAMP is detected based on time-resolved fluorescence energy transfer (TR-FRET) and competitive binding of ruthenylated cAMP and endogenous cAMP to an anti-cAMP monoclonal antibody labeled with AlexaFluor-700. The Ruthenium complex serves as the FRET donor and transfers energy to AlexaFluor-700. The FRET signal is inversely proportional to the cAMP concentration.
CHO-GPR17S cells were detached with Accutase and resuspended in assay buffer consisting of Hank's Balanced Salt Solution (HBSS), 10mM HEPES (4-(2-hydroxyethyl) piperazine-1-ethanesulfonic acid solution) and 0.1% bovine serum albumin (pH 7.4). The cells were seeded in black 384-well plates (Corning) at a density of 10'000 cells / 20µl assay buffer until the addition of compounds.
Test antagonist compounds were serially diluted in dimethyl sulfoxide (DMSO) and spotted in 384-well plates. The compounds were then diluted in HBSS buffer supplemented with an EC80 concentration of MDL29,951 (3-(2-Carboxy-4,6-dichloroindol-3-yl)propionic acid) (GPR17 agonist) plus 3-Isobutyl-1-methylxanthine (IBMX) (0.5mM final concentration) and added to the cells at room temperature. Forskolin (15µM final concentration) was added 5 minutes after the test compounds and the cells were incubated at room temperature for 30 minutes. The assay was stopped by adding cAMP detection mix (containing detergents for cell lysis) for 90 minutes at room temperature.
Cellular cAMP was measured using a Paradigm reader (Molecular Devices). The raw data was used to calculate the FRET signal based on the assay's P-factor as per cAMP kit instructions. The data was normalized to the maximal activity of a reference antagonist and dose response curves were fitted to the percent activity of the test compounds using a sigmoidal dose response model (Genedata Screener).
Results in the hGPR17 cAMP assay are provided for compounds of formula I in Table 1 Table 1: […]

**Q.** For `COc1nc(NS(=O)(=O)c2c[nH]c3c(-n4ccc(F)n4)c(Cl)ccc23)nc(OC)c1OC(F)F` [Example 54, 6-chloro-N-[5-(difluoromethoxy)-4,6-dimethoxy-pyrimidin-2-yl]-7-(3-fluoropyrazol-1-yl)-1H-indole-3-sulfonamide], which IC50 is on record?
**A.** Its IC50 is 27 nM.

**Q.** For `COc1nc(NS(=O)(=O)c2c[nH]c3c(-n4ccc(F)n4)c(Cl)ccc23)nc(OC)c1CC(F)F` [Example 55, 6-chloro-N-[5-(2,2-difluoroethyl)-4,6-dimethoxy-pyrimidin-2-yl]-7-(3-fluoropyrazol-1-yl)-1H-indole-3-sulfonamide], which IC50 is on record?
**A.** The IC50 was 25 nM.

**Q.** For `COc1nc(NS(=O)(=O)c2c[nH]c3c(-n4ccc(F)n4)c(Cl)ccc23)nc(OC)c1OCCF` [Example 56, 6-chloro-N-[5-(2-fluoroethoxy)-4,6-dimethoxy-pyrimidin-2-yl]-7-(3-fluoropyrazol-1-yl)-1H-indole-3-sulfonamide], which IC50 is on record?
**A.** Its IC50 is 49 nM.

**Q.** Which IC50 does the source give for `COc1nc(NS(=O)(=O)c2c[nH]c3c(-n4nccn4)c(Cl)ccc23)nc(OC)c1OC(F)(F)CF` [Example 57, 6-chloro-N-[4,6-dimethoxy-5-(1,1,2-trifluoroethoxy)pyrimidin-2-yl]-7-(triazol-2-yl)-1H-indole-3-sulfonamide] here?
**A.** Its IC50 is 85 nM.

**Q.** `COc1nc(NS(=O)(=O)c2c[nH]c3c(-n4nccn4)c(Cl)ccc23)nc(OC)c1OC(C)(C)CF` [Example 58, 6-chloro-N-[5-(2-fluoro-1,1-dimethyl-ethoxy)-4,6-dimethoxy-pyrimidin-2-yl]-7-(triazol-2-yl)-1H-indole-3-sulfonamide] was tested. Which IC50 did it give?
**A.** The IC50 was 1270 nM.

**Q.** For `[2H]C([2H])(Oc1c(OC)nc(NS(=O)(=O)c2c[nH]c3c(-n4nccn4)c(Cl)ccc23)nc1OC)C(F)F` [Example 59, 6-chloro-N-[5-(1,1-dideuterio-2,2-difluoro-ethoxy)-4,6-dimethoxy-pyrimidin-2-yl]-7-(triazol-2-yl)-1H-indole-3-sulfonamide], which IC50 is on record?
**A.** The IC50 was 74 nM.

**Q.** How did the IC50 turn out when `COc1nc(NS(=O)(=O)c2c[nH]c3c(-n4nccn4)c(Cl)ccc23)nc(OC)c1OCC#N` [Example 60, 6-chloro-N-[5-(cyanomethoxy)-4,6-dimethoxy-pyrimidin-2-yl]-7-(triazol-2-yl)-1H-indole-3-sulfonamide] was run?
**A.** The IC50 was 49 nM.

**Q.** With `COc1nc(NS(=O)(=O)c2c[nH]c3c(-n4nccn4)c(Cl)ccc23)nc(OC)c1CCC#N` [Example 61, 6-chloro-N-[5-(2-cyanoethyl)-4,6-dimethoxy-pyrimidin-2-yl]-7-(triazol-2-yl)-1H-indole-3-sulfonamide] as the compound, how does the IC50 read?
**A.** The IC50 was 29 nM.

**Q.** For `COc1nc(NS(=O)(=O)c2c[nH]c3c(-n4nccn4)c(Cl)ccc23)nc(OC)c1C` [Example 62, 6-chloro-N-(4,6-dimethoxy-5-methyl-pyrimidin-2-yl)-7-(triazol-2-yl)-1H-indole-3-sulfonamide], which IC50 is on record?
**A.** Its IC50 is 19 nM.

**Q.** With `COc1nc(NS(=O)(=O)c2c[nH]c3c(-n4nccn4)c(Cl)ccc23)nc(OC)c1Br` [Example 63, N-(5-bromo-4,6-dimethoxy-pyrimidin-2-yl)-6-chloro-7-(triazol-2-yl)-1H-indole-3-sulfonamide] as the compound, how does the IC50 read?
**A.** Its IC50 is 37 nM.

**Q.** For `COc1nc(NS(=O)(=O)c2c[nH]c3c(-n4nccn4)c(Cl)c(F)cc23)nc(OC)c1OCC(F)F` [Example 64, 6-chloro-N-[5-(2,2-difluoroethoxy)-4,6-dimethoxy-pyrimidin-2-yl]-5-fluoro-7-(triazol-2-yl)-1H-indole-3-sulfonamide], which IC50 is on record?
**A.** Its IC50 is 75 nM.

**Q.** Which IC50 does the source give for `COc1nc(NS(=O)(=O)c2c[nH]c3c(-n4cccn4)c(Cl)ccc23)nc(OC)c1OCC(F)F` [Example 65, 6-chloro-N-[5-(2,2-difluoroethoxy)-4,6-dimethoxy-pyrimidin-2-yl]-7-pyrazol-1-yl-1H-indole-3-sulfonamide] here?
**A.** The IC50 was 22 nM.

**Q.** How did the IC50 turn out when `COc1nc(NS(=O)(=O)c2c[nH]c3c(-n4cccn4)c(Cl)ccc23)nc(OC)c1OC(F)F` [Example 66, 6-chloro-N-[5-(difluoromethoxy)-4,6-dimethoxy-pyrimidin-2-yl]-7-pyrazol-1-yl-1H-indole-3-sulfonamide] was run?
**A.** Its IC50 is 21 nM.

**Q.** How did the IC50 turn out when `COc1nc(NS(=O)(=O)c2c[nH]c3c(-n4cccn4)c(Cl)ccc23)nc(OC)c1OCCF` [Example 67, 6-chloro-N-[5-(2-fluoroethoxy)-4,6-dimethoxy-pyrimidin-2-yl]-7-pyrazol-1-yl-1H-indole-3-sulfonamide] was run?
**A.** Its IC50 is 31 nM.

**Q.** `[2H]C([2H])(F)C([2H])([2H])Oc1c(OC)nc(NS(=O)(=O)c2c[nH]c3c(-n4cccn4)c(Cl)ccc23)nc1OC` [Example 68, 6-chloro-N-[4,6-dimethoxy-5-(1,1,2,2-tetradeuterio-2-fluoro-ethoxy)pyrimidin-2-yl]-7-pyrazol-1-yl-1H-indole-3-sulfonamide] was tested. Which IC50 did it give?
**A.** The IC50 was 36 nM.

**Q.** Which IC50 does the source give for `COc1nc(NS(=O)(=O)c2c[nH]c3c(-n4cccn4)c(Cl)ccc23)nc(OC)c1OCC#N` [Example 69, 6-chloro-N-[5-(cyanomethoxy)-4,6-dimethoxy-pyrimidin-2-yl]-7-pyrazol-1-yl-1H-indole-3-sulfonamide] here?
**A.** The IC50 was 52 nM.

**Q.** Which IC50 does the source give for `COc1nc(NS(=O)(=O)c2c[nH]c3c(-n4cccn4)c(Cl)ccc23)nc(OC)c1CCC#N` [Example 70, 6-chloro-N-[5-(2-cyanoethyl)-4,6-dimethoxy-pyrimidin-2-yl]-7-pyrazol-1-yl-1H-indole-3-sulfonamide] here?
**A.** The IC50 was 37 nM.

**Q.** How did the IC50 turn out when `COc1nc(NS(=O)(=O)c2c[nH]c3c(-n4cccn4)c(Cl)ccc23)ncc1CC(F)F` [Example 71, 6-chloro-N-[5-(2,2-difluoroethyl)-4-methoxy-pyrimidin-2-yl]-7-pyrazol-1-yl-1H-indole-3-sulfonamide] was run?
**A.** Its IC50 is 63 nM.

**Q.** How did the IC50 turn out when `[2H]C([2H])(c1cnc(NS(=O)(=O)c2c[nH]c3c(-n4cccn4)c(Cl)ccc23)nc1OC)C(F)F` [Example 72, 6-chloro-N-[5-(1,1-dideuterio-2,2-difluoroethyl)-4-methoxy-pyrimidin-2-yl]-7-pyrazol-1-yl-1H-indole-3-sulfonamide] was run?
**A.** Its IC50 is 41 nM.

**Q.** Which IC50 does the source give for `COc1nc(NS(=O)(=O)c2c[nH]c3c(-n4cccn4)c(Cl)ccc23)nc(OC)c1C1CC1C#N` (stereo not shown) [Example 73, 6-chloro-N-[5-(2-cyanocyclopropyl)-4,6-dimethoxy-pyrimidin-2-yl]-7-pyrazol-1-yl-1H-indole-3-sulfonamide] here?
**A.** The IC50 was 41 nM.

**Q.** How did the IC50 turn out when `COc1nc(NS(=O)(=O)c2c[nH]c3c(-n4cccn4)c(C)ccc23)nc(OC)c1OCC(F)F` [Example 74, N-[5-(2,2-difluoroethoxy)-4,6-dimethoxy-pyrimidin-2-yl]-6-methyl-7-pyrazol-1-yl-1H-indole-3-sulfonamide] was run?
**A.** The IC50 was 59 nM.

**Q.** For `COc1nc(NS(=O)(=O)c2c[nH]c3c(-n4cccn4)c(Br)ccc23)nc(OC)c1OCC(F)F` [Example 75, 6-bromo-N-[5-(2,2-difluoroethoxy)-4,6-dimethoxy-pyrimidin-2-yl]-7-pyrazol-1-yl-1H-indole-3-sulfonamide], which IC50 is on record?
**A.** Its IC50 is 42 nM.

**Q.** `COc1nc(NS(=O)(=O)c2c[nH]c3c(-n4cccn4)c(C)ccc23)nc(OC)c1OC(F)F` [Example 76, N-[5-(difluoromethoxy)-4,6-dimethoxy-pyrimidin-2-yl]-6-methyl-7-pyrazol-1-yl-1H-indole-3-sulfonamide] was tested. Which IC50 did it give?
**A.** The IC50 was 75 nM.

**Q.** How did the IC50 turn out when `COc1nc(NS(=O)(=O)c2c[nH]c3c(-n4cccn4)c(Br)ccc23)nc(OC)c1OC(F)F` [Example 77, 6-bromo-N-[5-(difluoromethoxy)-4,6-dimethoxy-pyrimidin-2-yl]-7-pyrazol-1-yl-1H-indole-3-sulfonamide] was run?
**A.** The IC50 was 27 nM.

**Q.** With `COc1nc(NS(=O)(=O)c2c[nH]c3c(-n4nccn4)c(Cl)ccc23)ncc1CC(F)F` [Example 78, 6-chloro-N-[5-(2,2-difluoroethyl)-4-methoxy-pyrimidin-2-yl]-7-(triazol-2-yl)-1H-indole-3-sulfonamide] as the compound, how does the IC50 read?
**A.** Its IC50 is 55 nM.

**Q.** How did the IC50 turn out when `[2H]C([2H])(c1cnc(NS(=O)(=O)c2c[nH]c3c(-n4nccn4)c(Cl)ccc23)nc1OC)C(F)F` [Example 79, 6-chloro-N-[5-(1,1-dideuterio-2,2-difluoroethyl)-4-methoxy-pyrimidin-2-yl]-7-(triazol-2-yl)-1H-indole-3-sulfonamide] was run?
**A.** The IC50 was 36 nM.

**Q.** How did the IC50 turn out when `COc1nc(NS(=O)(=O)c2c[nH]c3c(-n4cccn4)c(C)ccc23)nc(OC)c1CC(F)F` [Example 80, N-[5-(2,2-difluoroethyl)-4,6-dimethoxy-pyrimidin-2-yl]-6-methyl-7-pyrazol-1-yl-1H-indole-3-sulfonamide] was run?
**A.** The IC50 was 29 nM.

**Q.** Which IC50 does the source give for `COc1nc(NS(=O)(=O)c2c[nH]c3c(-n4cccn4)c(Br)ccc23)nc(OC)c1CC(F)F` [Example 81, 6-bromo-N-[5-(2,2-difluoroethyl)-4,6-dimethoxy-pyrimidin-2-yl]-7-pyrazol-1-yl-1H-indole-3-sulfonamide] here?
**A.** The IC50 was 18 nM.
